Experimental data from paper PMC12746157, “Light-Regulated Agonists Spatiotemporally Activating the Vitamin D Receptor Mitigate Psoriasis-like Inflammation in Mice without Inducing Hypercalcemia” (ACS Central Science, 2025).

Columns and labels:
VDR [1] = target: T1, VDR (Homo sapiens, UniProt P11473); assay: Luminescent proximity homogeneous assay (AlphaScreen): interaction of purified VDR, RxR and TRAP220 coactivator fragment; assay type: biochemical; conditions: UVB narrowband light (315 nm) and visible illumination at 420 nm
T1 sequence (P11473 whole entry, the tested form may be a part): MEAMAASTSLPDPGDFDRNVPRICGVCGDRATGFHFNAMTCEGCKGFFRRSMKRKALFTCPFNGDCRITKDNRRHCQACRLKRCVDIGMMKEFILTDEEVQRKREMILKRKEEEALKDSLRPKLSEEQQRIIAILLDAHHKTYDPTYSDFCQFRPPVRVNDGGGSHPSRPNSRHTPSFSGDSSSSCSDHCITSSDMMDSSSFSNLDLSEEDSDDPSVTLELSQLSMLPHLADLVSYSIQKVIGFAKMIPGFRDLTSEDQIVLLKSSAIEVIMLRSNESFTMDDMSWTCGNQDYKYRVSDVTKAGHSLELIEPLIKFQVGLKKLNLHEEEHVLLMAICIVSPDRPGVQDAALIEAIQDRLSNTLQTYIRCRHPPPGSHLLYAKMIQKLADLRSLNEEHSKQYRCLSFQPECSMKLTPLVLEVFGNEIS
T1 sequence (P19793 whole entry partner, the tested form may be a part): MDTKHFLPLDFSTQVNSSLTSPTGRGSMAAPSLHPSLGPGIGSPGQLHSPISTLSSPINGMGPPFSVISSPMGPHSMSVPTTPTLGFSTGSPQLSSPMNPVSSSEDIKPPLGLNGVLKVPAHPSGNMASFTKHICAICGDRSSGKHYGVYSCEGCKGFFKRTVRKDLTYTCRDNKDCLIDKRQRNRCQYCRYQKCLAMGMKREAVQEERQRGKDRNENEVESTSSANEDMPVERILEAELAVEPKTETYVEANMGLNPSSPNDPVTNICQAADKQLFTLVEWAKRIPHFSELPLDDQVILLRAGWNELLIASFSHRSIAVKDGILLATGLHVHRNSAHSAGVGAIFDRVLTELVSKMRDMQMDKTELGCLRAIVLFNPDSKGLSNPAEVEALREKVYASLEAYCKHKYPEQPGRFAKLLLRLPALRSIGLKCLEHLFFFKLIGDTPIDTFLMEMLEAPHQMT
T1 sequence (Q15648 whole entry partner, the tested form may be a part): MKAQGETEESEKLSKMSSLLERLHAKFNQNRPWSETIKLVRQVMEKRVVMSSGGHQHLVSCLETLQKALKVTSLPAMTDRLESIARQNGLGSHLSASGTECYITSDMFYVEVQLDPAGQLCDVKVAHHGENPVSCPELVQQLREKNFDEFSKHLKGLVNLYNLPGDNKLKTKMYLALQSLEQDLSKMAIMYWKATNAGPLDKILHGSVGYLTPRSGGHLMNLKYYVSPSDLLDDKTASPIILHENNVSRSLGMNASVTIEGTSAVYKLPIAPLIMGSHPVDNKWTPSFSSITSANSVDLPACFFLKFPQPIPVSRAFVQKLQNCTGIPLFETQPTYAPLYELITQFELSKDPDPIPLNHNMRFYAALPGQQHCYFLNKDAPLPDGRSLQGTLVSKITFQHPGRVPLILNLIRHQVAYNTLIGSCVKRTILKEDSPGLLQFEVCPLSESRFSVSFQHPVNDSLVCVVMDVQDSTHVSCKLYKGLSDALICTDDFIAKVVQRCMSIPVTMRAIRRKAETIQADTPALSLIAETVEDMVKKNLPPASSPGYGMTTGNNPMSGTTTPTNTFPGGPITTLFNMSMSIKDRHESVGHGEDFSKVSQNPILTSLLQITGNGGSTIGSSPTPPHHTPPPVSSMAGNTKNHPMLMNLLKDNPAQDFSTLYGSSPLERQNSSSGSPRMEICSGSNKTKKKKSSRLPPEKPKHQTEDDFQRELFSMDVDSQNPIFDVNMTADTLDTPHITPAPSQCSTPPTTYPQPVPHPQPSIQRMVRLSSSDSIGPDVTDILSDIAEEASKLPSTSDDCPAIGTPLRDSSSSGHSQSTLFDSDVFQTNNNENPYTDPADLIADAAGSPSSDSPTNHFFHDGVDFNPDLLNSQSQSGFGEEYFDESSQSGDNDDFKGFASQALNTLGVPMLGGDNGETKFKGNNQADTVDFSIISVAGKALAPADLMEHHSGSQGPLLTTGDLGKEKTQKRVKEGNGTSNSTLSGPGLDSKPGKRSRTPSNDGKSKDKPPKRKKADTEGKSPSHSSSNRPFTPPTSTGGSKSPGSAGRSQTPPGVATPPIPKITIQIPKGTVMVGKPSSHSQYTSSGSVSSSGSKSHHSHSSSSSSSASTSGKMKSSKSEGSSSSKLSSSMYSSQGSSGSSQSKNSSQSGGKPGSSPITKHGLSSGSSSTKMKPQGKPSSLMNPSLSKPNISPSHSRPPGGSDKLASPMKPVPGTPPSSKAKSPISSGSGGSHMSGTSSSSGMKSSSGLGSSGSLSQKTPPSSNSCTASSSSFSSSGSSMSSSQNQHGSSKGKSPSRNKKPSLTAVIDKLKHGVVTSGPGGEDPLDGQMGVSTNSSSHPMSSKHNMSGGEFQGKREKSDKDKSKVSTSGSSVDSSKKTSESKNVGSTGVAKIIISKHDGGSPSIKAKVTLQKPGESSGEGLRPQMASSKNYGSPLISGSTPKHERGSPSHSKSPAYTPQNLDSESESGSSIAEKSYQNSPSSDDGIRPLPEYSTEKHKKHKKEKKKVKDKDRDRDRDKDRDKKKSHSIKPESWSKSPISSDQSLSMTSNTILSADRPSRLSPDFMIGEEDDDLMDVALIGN

[2] = Proportions of cis and trans at the photostationary state in DMSO from absorbance spectra (Ernst Fischer method); assay type: physicochemical
Protocol: 2. Photochemical characterization.
A 50 µM solution of each compound in DMSO was dispensed into a transparent 96-well plate (200 µL per well). The absorption spectra were recorded from 300 to 600 nm with 2 nm fixed intervals using a Tecan Spark 20M Multimode microplate reader. Initial measurements were performed in the dark, followed by spectra acquired immediately after each 3 min period of light irradiation at different wavelengths using 96-well LED array plates (LEDA Teleopto). Theoretical absorbance spectra corresponding to the pure cis isomer (100%) of each compound were calculated in order to obtain the theoretical percentage of cis isomer at each wavelength, according to the method described by Ernst Fischer (1967). […]
Table S6. Proportions of cis and trans at the photostationary state in DMSO. […]

VDR [3] = target: T1, VDR; assay: Luminescent proximity homogeneous assay (AlphaScreen): interaction of purified VDR, RxR and TRAP220 coactivator fragment; assay type: biochemical; conditions: for EC50: n >= 3, read-out: Activity (pEC50) (converted)
Protocol: The activity of all molecules was evaluated using a luminescent proximity homogeneous assay to study interactions between purified VDR, RxR and a fragment of the transcriptional coactivator TRAP220 (Supporting Information). This method allowed us to monitor the interaction between TRAP220 and the activated VDR-RxR heterodimer, which is of mechanistic and physiological significance. Both the activation of VDR and the VDR-RxR heterodimer formation are necessary to promote the whole complex association. This system efficiently includes conformational events of the receptor upon activation that go beyond a simple binding measurement. […]
The activity of all molecules was evaluated using an in-vitro luminescent proximity homogeneous assay by using the Alphascreen technology (Cat No. 6760619R, Perkin Elmer, now Revvity). In a transparent 96-well preplate, 10X concentrations of the compounds were prepared in assay buffer (0.1% bovine serum albumin, 2 mM 1,4-dithiothreitol, 25 mM HEPES and 100 mM NaCl; pH 7.3). LSN2148936 was used as positive control. Purified histidine-tagged VDR (44 µM), flag-RxRa (5.7 µM), biotin tagged TRAP220 transcriptional coactivator (500 µM), and the donor and acceptor beads from the AlphaScreen kit (2 µL/mL each), were diluted in assay buffer. In the dark, 6 µL/well of each test compound were pipetted on a white, shallow 96-well ProxiPlateTM […]
(Perkin Elmer, now Revvity, Cat.No. 6006290) in duplicate. Immediately, 54 µL of the protein solution were added and the plate was covered and incubated for 30 min at room temperature in the dark. Meanwhile, the plate with the 10X dilutions was illuminated at 365 nm for 3 min in a 96-well DED array plate (LEDA Teleopto), to allow the photoconversion of the molecules to their cis configuration. The illuminated compounds were mixed with the protein solution and incubated as described above for the plate in the dark. After the incubation time, the counts of both, the dark and illuminated plates, were measured in a Tecan Spark 20M Multimode plate reader with defined settings (excitation: 680 nm, emission: 520-620 nm, excitation time: 100ms, integration time: 300 ms). Biotinylated-His6 peptide (PerkinElmer) was used as a quality control reagent for AlphaScreen® assays and to evaluate compound interaction with the method. The raw data were normalized to the effect of the buffer (0%) and the maximum response obtained with LSN2148936 (100%). Dose-response curves and EC50 values were calculated with Graphpad software. Each experiment was performed in triplicate, with 2 replicates per plate.
4. Hydrogen/deuterium exchange coupled to mass spectrometry (HDX-MS)
The HDX-MS experiments were performed with an in-house automated modular system interfaced with an Orbitrap Exploris 480 mass spectrometer.1 Two inter-day experiments were conducted: one in the dark (first day) and one illuminated with 365 nm light (second day). Sample preparation and on-exchange reactions were performed on opaque plates (VWR® Real-Time […]
mm, Part Nº BC5226) light source was positioned above the Tecan system used for sample preparation. The distance between the UV light and the opaque plates was 80 cm. The 365 nm light illuminated the sample preparation process and the on-exchange reaction on the second day.
A 10 µM VDR-LBD protein stock solution was prepared in 20 mM HEPES buffer (with 150 mM NaCl, 10 mM D-L Methionine and 5 mM DTT) at pH 7.5. The compound 11b was prepared at 10 mM in DMSO. The protein: compound-complex (1:10 molar ratio) was pre-incubated for 1h before the first on-exchange reaction. The HDX reaction was initiated by a 5-fold dilution of the protein stock solution, in the presence and absence of compound 11b, in the corresponding Deuterated buffer at room temperature. Samples were prepared in parallel with three replicates of […]
time point, HDX reactions were quenched with a solution of 3 M Urea and 1% TFA (pH 2.5) followed by online proteolysis with an in-house Pepsin immobilized column and desalting […]

[4] = after illumination (365 nm) for 3 min, mean ± SEM
[5] = after illumination (365 nm) for 3 min, normalized to maximum response of LSN2148936 (100%), mean ± SEM

| Compound | %cis at the photostationary state ([2]; 365 nm) | %trans at the photostationary state ([2]; 365 nm) | %cis at the photostationary state ([2]; 380 nm) | %trans at the photostationary state ([2]; 380 nm) | %cis at the photostationary state ([2]; 405 nm) | %trans at the photostationary state ([2]; 405 nm) | %cis at the photostationary state ([2]; 420 nm) | %trans at the photostationary state ([2]; 420 nm) | %cis at the photostationary state ([2]; 470 nm) | %trans at the photostationary state ([2]; 470 nm) | %cis at the photostationary state ([2]; 500 nm) | %trans at the photostationary state ([2]; 500 nm) | %cis at the photostationary state ([2]; 530 nm) | %trans at the photostationary state ([2]; 530 nm) | EC50 (VDR [3]; [4]) [nM] | Emax (VDR [3]; [5]) [%] | also measured |
| --- | --- | --- | --- | --- | --- | --- | --- | --- | --- | --- | --- | --- | --- | --- | --- | --- | --- |
| Cc1cc(OCC(O)C(C)(C)C)ccc1N=Nc1cccc(-c2ccc(C(=O)O)cc2)c1 (stereo not drawn) [Compound 11b] | 96,87% | 3,13% | 95,62% | 4,38% | 63,64% | 36,36% | 60,47% | 39,53% | 31,30% | 68,70% | 32,81% | 67,19% | 29,14% | 70,86% | 58.9 | > 80 | modulation of activity by light (VDR [1]): modulated the activity; %cis at the photostationary state ([2]; 420 nm, listed as PhotoVDRM): up to 60%; Activity (Emax) (VDR [3]; after illumination (365 nm) for 3 min, normalized to maximum response of LSN2148936 (100%), mean ± SEM, listed as 11b (PhotoVDRM)): 84 ± 2.62%; Activity in the dark (VDR [3]; dark (trans), concentrations up to 10 μM): inactive; antagonist activity (VDR [3]; several concentrations with LSN2148936 at 300nM, dark or 365 nm): does no act as antagonist |
| Cc1cc(/N=N/c2cccc(-c3ccc(CO)cc3)c2)ccc1OCC(O)C(C)(C)C (stereo not drawn) [Compound 12a] | 97,06% | 2,94% | 95,61% | 4,39% | 63,64% | 36,36% | 60,45% | 39,55% | 33,06% | 66,94% | 34,03% | 65,97% | 30,20% | 69,80% | 339 | 31 ± 3.13 | – |
| Cc1cc(OCC(O)C(C)(C)C)ccc1/N=N/c1cccc(-c2ccc(CO)cc2)c1 (stereo not drawn) [Compound 12b] | 96,19% | 3,81% | 95,15% | 4,85% | 62,30% | 37,70% | 59,96% | 40,04% | 29,61% | 70,39% | 25,15% | 74,85% | 19,72% | 80,28% | 794 | 44 ± 5.37 | – |
| Cc1cc(OCC(O)C(C)(C)C)ccc1/N=N/c1cccc(-c2ccc(CO)cc2C)c1 (stereo not drawn) [Compound 12d] | 96,92% | 3,08% | 95,77% | 4,23% | 63,77% | 36,23% | 60,13% | 39,87% | 32,14% | 67,86% | 33,18% | 66,82% | 29,47% | 70,53% | 95.5 | 61 ± 2.01 | – |
